Measured values reported in patent US10441663B2, “Methods for treating cancer” (Bicycle Therapeutics Limited, priority 2016, dated 2019).
*1 amine or outer side, *2 acyl side, *3 side chain or, on linkers, in order; H or OH if unused. Where a SMILES comes first, the peptide text is derived from it. Bridges are numbered along the chain shown (N, C = ends). [ ]: non-standard residue; d: D form. The star is where a group is joined. X1 = COc1cc2cc(c1Cl)N(C)C(=O)C[C@H](OC(=O)[C@H](C)N(C)C(=O)CCSSC(C)CCC(=O)*)[C@]1(C)O[C@H]1[C@H](C)[C@@H]1C[C@@](O)(NC(=O)O1)[C@H](OC)/C=C/C=C(\C)C2; 1Nal = N[C@@H](Cc1cccc2ccccc12)C(=O)O; TBMB = c1c(C[*:1])cc(C[*:3])cc1C[*:2]; Tle = CC(C)(C)[C@H](N)C(=O)O; βAla = NCCC(=O)O; Sar = CNCC(=O)O

Tested on: HCC1806 xenograft
Assay: In vivo efficacy of BT1718 in HCC1806 xenograft
Set-up: species or system Mus Musculus; key to Best response at 10 mg/kg: CR complete response; PR partial response
Method: The objective of this study was to evaluate the in vivo anti-tumor efficacy of BT1718in treatment of HT1080, NCI-H292, NCI-H1975, MDA-MB-231, HCC1806, RPMI2650, HCT-15, HT-29 and SNU-16 xenograft in BALB/c nude mice.
The HT1080, NCI-H292, NCI-H1975, MDA-MB-231, HCC1806, RPMI2650, HCT-15, HT-29 and SNU-16 tumor cells were maintained in vitro as a monolayer culture in medium supplemented with 10% heat inactivated fetal bovine serum at 37° C. in an […]. The tumor cells will be routinely subcultured twice weekly by trypsin-EDTA treatment. The cells growing in an exponential growth phase will be harvested and counted for tumor inoculation.
Mouse was inoculated subcutaneously at the right flank with tumor cells for tumor development. The animals were randomized and treatment was started when the average tumor reaches certain volume for the efficacy study, the inoculating cell amounts and starting tumor size were shown as below in Table 9. The test article administration and the animal numbers in each group were shown in the experimental design in Table 10.
All the procedures related to animal handling, care and the treatment in the study were performed according to the guidelines of the Association for Assessment and Accreditation of Laboratory Animal Care (AAALAC). At the time of routine monitoring, the animals were daily checked for any effects of tumor growth and treatments on normal behavior such as mobility, food and water consumption (by looking only), body weight gain/loss (body weights were measured every day), eye/hair matting and any other abnormal effect as stated in the protocol. Death and observed clinical signs were recorded on the basis of the numbers of animals within each subset.
The major endpoint was to see if the tumor growth could be delayed or mice could be cured. Tumor size was measured three times weekly in two dimensions using a caliper, and the volume was expressed in mm^3 using the formula: V=0.5 a×b^2 where a and b are the long and short diameters of the tumor, respectively. The tumor size was then used for calculations of T/C value. The T/C value (in percent) is an indication of antitumor effectiveness; T and C are the mean volumes of the treated and control groups, respectively, on a given day.
TGI was calculated for each group using the formula: TGI (%)=[1−(Ti−T0)/(Vi−V0)]×100; Ti is the average tumor volume of a treatment group on a given day, T0 is the average tumor volume of the treatment group on the day of treatment start, Vi is the average tumor volume of the vehicle control group on the same day with Ti, and V0 is the average tumor volume of the vehicle group on the day of treatment start.
Summary statistics, including mean and the standard error of the mean (SEM), are provided for the tumor volume of each group at each time point.
Statistical analysis of difference in tumor volume among the groups was conducted on the data obtained at the best therapeutic time point after the final dose.
A one-way ANOVA was performed to compare tumor volume among groups, and when a significant F-statistics (a ratio of treatment variance to the error variance) was obtained, comparisons between groups were carried out with Games-Howell test. All data were analyzed using Prism. P<0.05 was considered to be statistically significant.

COc1cc2cc(c1Cl)N(C)C(=O)C[C@H](OC(=O)[C@H](C)N(C)C(=O)CCSSC(C)CCC(=O)NCCC(=O)N(C)CC(=O)N(C)CC(=O)N(C)CC(=O)N(C)CC(=O)N(C)CC(=O)N(C)CC(=O)N(C)CC(=O)N(C)CC(=O)N(C)CC(=O)N(C)CC(=O)N[C@@H](C)C(=O)N[C@H]1CSCc3cc4cc(c3)CSC[C@H](NC(=O)[C@@H](C)NC(=O)[C@H](Cc3cccc5ccccc35)NC(=O)[C@H](CCC(=O)O)NC(=O)[C@H](CC(N)=O)NC(=O)[C@@H](C)NC1=O)C(=O)N[C@@H](CCC(=O)O)C(=O)N[C@@H](CC(=O)O)C(=O)N[C@@H](Cc1ccccc1)C(=O)N[C@@H](Cc1ccc(O)cc1)C(=O)N[C@@H](CC(=O)O)C(=O)N[C@@H](C(C)(C)C)C(=O)N[C@H](C(N)=O)CSC4)[C@]1(C)O[C@H]1[C@H](C)[C@@H]1C[C@@](O)(NC(=O)O1)[C@H](OC)/C=C/C=C(\C)C2 (stereo partly shown) [BT1718] ({X1-βAla}-[Sar][Sar][Sar][Sar][Sar][Sar][Sar][Sar][Sar][Sar]AC[dA]NE[1Nal][dA]CEDFYD[Tle]C-NH2; linker 12-18-25 via TBMB (inferred))
Body Weight (1 mpk biw, day 0): 22.5 ± 0.7 g | Tumor Volume (1 mpk biw, day 0): 188 ± 23 mm^3 | Body Weight (1 mpk biw, day 2): 22.8 ± 0.7 g | Tumor Volume (1 mpk biw, day 2): 265 ± 53 mm^3 | Body Weight (1 mpk biw, day 4): 23.6 ± 0.6 g | Tumor Volume (1 mpk biw, day 4): 428 ± 44 mm^3 | Body Weight (1 mpk biw, day 7): 24.2 ± 0.5 g | Tumor Volume (1 mpk biw, day 7): 660 ± 85 mm^3 | Body Weight (1 mpk biw, day 9): 24.0 ± 0.5 g | Tumor Volume (1 mpk biw, day 9): 793 ± 122 mm^3 | Body Weight (1 mpk biw, day 11): 24.3 ± 0.6 g | Tumor Volume (1 mpk biw, day 11): 882 ± 118 mm^3 | Body Weight (1 mpk biw, day 14): 24.8 ± 0.4 g | Tumor Volume (1 mpk biw, day 14): 1169 ± 137 mm^3 | re-growth during dosing suspension (2 months dosing suspension period): no re-growth | Body Weight (3 mpk biw, day 0): 22.6 ± 1.0 g | Tumor Volume (3 mpk biw, day 0): 190 ± 17 mm^3 | Body Weight (3 mpk biw, day 2): 23.2 ± 0.9 g | Tumor Volume (3 mpk biw, day 2): 259 ± 34 mm^3 | Body Weight (3 mpk biw, day 4): 22.6 ± 1.0 g | Tumor Volume (3 mpk biw, day 4): 296 ± 41 mm^3 | Body Weight (3 mpk biw, day 7): 22.8 ± 1.4 g | Tumor Volume (3 mpk biw, day 7): 276 ± 77 mm^3 | Body Weight (3 mpk biw, day 9): 22.6 ± 1.6 g | Tumor Volume (3 mpk biw, day 9): 323 ± 116 mm^3 | Body Weight (3 mpk biw, day 11): 23.2 ± 1.2 g | Tumor Volume (3 mpk biw, day 11): 392 ± 126 mm^3 | Body Weight (3 mpk biw, day 14): 23.5 ± 1.1 g | Tumor Volume (3 mpk biw, day 14): 527 ± 158 mm^3 | Body Weight (10 mpk biw, day 0): 23.1 ± 0.6 g | Tumor Volume (10 mpk biw, day 0): 186 ± 30 mm^3 | Body Weight (10 mpk biw, day 2): 22.2 ± 1.1 g | Tumor Volume (10 mpk biw, day 2): 221 ± 35 mm^3 | Body Weight (10 mpk biw, day 4): 23.2 ± 0.9 g | Tumor Volume (10 mpk biw, day 4): 185 ± 20 mm^3 | Body Weight (10 mpk biw, day 7): 23.4 ± 0.8 g | Tumor Volume (10 mpk biw, day 7): 142 ± 9 mm^3 | Body Weight (10 mpk biw, day 9): 22.9 ± 1.0 g | Tumor Volume (10 mpk biw, day 9): 92 ± 2 mm^3 | Body Weight (10 mpk biw, day 11): 22.5 ± 1.2 g | Tumor Volume (10 mpk biw, day 11): 84 ± 6 mm^3 | Body Weight (10 mpk biw, day 14): 23.8 ± 0.7 g | Tumor Volume (10 mpk biw, day 14): 67 ± 11 mm^3 | TGI (HCC1806, 1 mpk, biw, day 14): 8.6% | Tumor Volume (HCC1806, 1 mpk, biw, day 14): 1169 ± 137 mm^3 | TGI (HCC1806, 3 mpk, biw, day 14): 68.6% | Tumor Volume (HCC1806, 3 mpk, biw, day 14): 527 ± 158 mm^3 | TGI (HCC1806, 10 mpk, biw, day 14): 111.1% | Tumor Volume (HCC1806, 10 mpk, biw, day 14): 67 ± 11 mm^3 | Best response at 10 mg/kg (HCC-1806, 10 mg/kg): CR | Minimally Effective Dose IV BIW (HCC-1806, dose leading to tumor-stasis): <10 mg/kg | tumor volume after regression (after 2-3 weeks 10 mg/kg biw): below 50 mm3
